Drawing on patent US4954502A, “1-indolyalkyl-4-(substituted-pyridinyl)piperazines” (Bristol-Myers Squibb Company, priority 1989, dated 1990), this text covers IC50 for 49 compounds.

What is called IC50 is the concentration needed to halve the response being measured. Read a high IC50 as weaker potency in that assay.

Counter-ions that a name gives are not always drawn.

T1 sequence (P31652 whole entry): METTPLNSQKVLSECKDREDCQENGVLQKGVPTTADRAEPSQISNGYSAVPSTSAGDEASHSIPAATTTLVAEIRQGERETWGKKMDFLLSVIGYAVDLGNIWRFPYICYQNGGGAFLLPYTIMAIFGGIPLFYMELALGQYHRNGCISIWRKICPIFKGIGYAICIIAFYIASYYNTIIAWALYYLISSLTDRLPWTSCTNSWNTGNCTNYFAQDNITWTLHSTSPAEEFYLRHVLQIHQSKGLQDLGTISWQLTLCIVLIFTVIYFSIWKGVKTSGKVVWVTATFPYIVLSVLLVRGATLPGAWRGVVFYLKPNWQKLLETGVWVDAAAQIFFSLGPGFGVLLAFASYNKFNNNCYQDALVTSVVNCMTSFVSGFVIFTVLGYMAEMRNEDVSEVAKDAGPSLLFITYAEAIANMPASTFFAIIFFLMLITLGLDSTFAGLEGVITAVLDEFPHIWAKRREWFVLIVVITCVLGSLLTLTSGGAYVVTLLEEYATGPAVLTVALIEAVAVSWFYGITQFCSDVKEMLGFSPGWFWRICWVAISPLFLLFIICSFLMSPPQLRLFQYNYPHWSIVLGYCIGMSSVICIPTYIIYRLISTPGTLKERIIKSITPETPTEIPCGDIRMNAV

This assay concerns the target T1, serotonin uptake (Rattus norvegicus, UniProt P31652).
T1 construct: from tissue
As to the kind of experiment: Inhibition of serotonin uptake (in vitro): inhibition of synaptosomal reuptake of tritiated serotonin. Format: biochemical. The protocol: Determination of endogenous monoaminergic re-uptake inhibition values both for serotonin and norepinephrine was accomplished using test methods described by P. Skolnick, et al.. Br. J. Pharmacology (1985), 86, pp. 637-644; with only minor modifications. In vitro IC50 (nM) test values were determined for representative compounds of Formula I based on their inhibition of synaptosomal reuptake of tritiated serotonin. Test data IC50 values lower than 500 nM are considered to reflect activity as an inhibitor of serotonin reuptake. Compounds with Ic50 values lower than 1OO nM comprise preferred compounds.
`Clc1cccc(N2C[C@H]3C[C@@H]2CN3CCc2c[nH]c3ccccc23)n1` [Example 29] had a 50% inhibitory concentration (IC50) of 106 nM. This lies in the sub-micromolar range. Next, `COc1ccc2[nH]cc(CCN3CCN(c4cccc(C(F)(F)F)n4)CC3)c2c1` [Example 44]: 560 nM; `COc1cccnc1N1CCN(CCc2cn(C)c3ccccc23)CC1` [Example 47]: 24 nM. The result for `COc1cccnc1N1CCN(CCc2c[nH]c3ccccc23)CC1` [Example 18, 1-[2-(1H-indol-3-yl)-ethyl]-4-[3-methoxy-2-pyridinyl]-piperazine] reads 13 nM; that for `COc1ccc2[nH]cc(CCN3CCN(c4ncccc4OC)CC3)c2c1` [Example 38], 11 nM; that for `COc1cccnc1N1CCN(CCc2c[nH]c3ccc(Cl)cc23)CC1` [Example 56], less than 1 nM.

As to `COc1cc2[nH]cc(CCN3CCN(c4cccc(C(F)(F)F)n4)CC3)c2cc1OC` [Example 69], the IC50 came to 479 nM. Next, `COc1cccnc1N1CCN(CCc2c[nH]c3ccc(F)cc23)CC1` [Example 39]: 0.2 nM; `Clc1ccc2[nH]cc(CCN3CCN(c4cccc(Cl)n4)CC3)c2c1` [Example 57]: 166 nM; `COc1cccnc1N1C[C@H]2C[C@@H]1CN2CCc1c[nH]c2ccccc12` [Example 26]: 106 nM. On to `Cn1cc(CCN2CCN(c3cccc(Cl)n3)CC2)c2ccccc21` [Example 55], for which it took 126 nM to reach half-maximal inhibition (IC50). `Clc1cccc(N2CCN(CCCCc3c[nH]c4ccccc34)CC2)n1` [Example 31] registered an IC50 of 27 nM. Compound `COc1cccnc1N1C[C@@H]2C[C@H]1CN2CCc1c[nH]c2ccccc12` [Example 27] registered an IC50 of 12.5 nM. Take `FC(F)(F)c1cccc(N2CCN(CCc3c[nH]c4ccccc34)CC2)n1` [Example 15, 1-[2-(1H-indol-3-yl)-ethyl]-4-6-trifluoromethyl-2-pyridinyl]piperazine hydrochloride]: inhibition was half-maximal at 73 nM (IC50). Next, `FC(F)(F)c1cccnc1N1CCN(CCc2c[nH]c3ccccc23)CC1` [Example 17, 1-[2-(1H-indol-3-yl)-ethyl]-4-[3-trifluoromethyl-2-pyridinyl]piperazine hydrochloride]: 37 nM. The result for `COc1ccc2[nH]cc(CCN3CCN(c4cccc(Cl)n4)CC3)c2c1` [Example 40] reads 177 nM; that for `COc1cccnc1N1CCN(CCc2c[nH]c3ccccc23)C(C)C1` (stereo not shown) [Example 25], 8.6 nM. In turn, `COc1cccnc1N1C[C@@H]2C[C@H]1CN2CCCc1c[nH]c2ccccc12` [Example 34] gave an IC50 of 5.6 nM. `Clc1cccnc1N1CCN(CCc2c[nH]c3ccccc23)CC1` [Example 42] showed an IC50 of 520 nM. The result for `CC(Cc1c[nH]c2ccccc12)N1CCN(c2cccc(Cl)n2)CC1` (stereo not shown) [Example 36, 3-[2-[4-(6-Chloro-2-pyridyl)-1-piperazinyl]propyl]-indole] reads 75 nM; that for `Clc1cccc(N2CCN(CCCc3c[nH]c4ccccc34)CC2)n1` [Example 19, 1-(6-Chloro-2-pyridinyl)-4-[3-(1H-indol-3-yl)propyl]piperazine hydrochloride], 98 nM; that for `COc1cccnc1N1CCN(C(C)CCc2c[nH]c3ccccc23)CC1` (stereo not shown) [Example 68], 36.7 nM. Next, `COc1cc2[nH]cc(CCN3CCN(c4cccc(Cl)n4)CC3)c2cc1OC` [Example 48]: 127 nM; `COc1cccnc1N1CCN(CCc2c[nH]c3ccccc23)C(C)C1` (stereo not shown) [Example 64]: less than 1 nM. Next, `COc1ccc2c(CCN3CCN(c4cccc(Cl)n4)CC3)c[nH]c2c1` [Example 65]: 134 nM; `COc1cccnc1N1CCN(CCCc2cn(C)c3ccccc23)CC1` [Example 50]: 3.7 nM; `Fc1ccc2[nH]cc(CCN3CCN(c4cccc(Cl)n4)CC3)c2c1` [Example 41]: 2.8 nM. `CC1CN(c2cccc(Cl)n2)CCN1CCCc1c[nH]c2ccccc12` (stereo not shown) [Example 72] showed a half-inhibitory concentration (IC50) of 18.7 nM. Against the preceding compound, the IC50 is about 6.7-fold higher.

The compound `FC(F)(F)c1ccnc(N2CCN(CCc3c[nH]c4ccccc34)CC2)c1` [Example 37] gave an IC50 of 386 nM. Compound `COc1cccnc1N1CCN(CCCCc2c[nH]c3ccccc23)CC1` [Example 21, 1-[4-(1H-indol-3-yl)butyl]-4-(3-methoxy-2-pyridine-1)piperazine dihydrochloride] registered a concentration for half-maximal inhibition (IC50) of 58 nM. The result for `Clc1cccc(N2CCN(C3CC=C(c4c[nH]c5ccccc45)CC3)CC2)n1` (stereo not shown) [Example 45] reads 100 nM. Next, `COc1cccc(N2CCN(CCc3c[nH]c4ccccc34)CC2)n1` [Example 16, 1-[2-(1H-indol-3-yl)-ethyl]-4[6-methoxy-2-pyridinyl-piperazine hydrate]: 88 nM. Compound `FC(F)(F)c1cccc(N2CCN(CCc3c[nH]c4ccc(Cl)cc34)CC2)n1` [Example 63] showed an IC50 of 437 nM. The result for `COc1cccnc1N1C[C@H]2C[C@@H]1CN2CCCc1c[nH]c2ccccc12` [Example 35] reads 152 nM.

In turn, `COc1cccnc1N1CCN(CCCc2c[nH]c3ccccc23)CC1` [Example 20, 1-[3-(1H-indol-3-yl)-propyl]-4-[3-methoxy-2-pyridinyl]piperazine dihydrochloride hydrate] yielded a half-maximal inhibitory concentration (IC50) of 1.1 nM. The result for `Fc1ccc2[nH]cc(C3=CCC(N4CCN(c5cccc(Cl)n5)CC4)CC3)c2c1` (stereo not shown) [Example 70] reads 141 nM; that for `NC(=O)c1ccc2[nH]cc(C3=CCC(N4CCN(c5cccc(Cl)n5)CC4)CC3)c2c1` (stereo not shown) [Example 46], 27 nM; that for `Cn1cc(CCCN2CCN(c3cccc(Cl)n3)CC2)c2ccccc21` [Example 51], 86 nM. Next, `CC(CCc1c[nH]c2ccccc12)N1CCN(c2cccc(Cl)n2)CC1` (stereo not shown) [Example 67]: 142 nM; `FC(F)(F)c1cccc(N2CCN(CCCc3c[nH]c4ccccc34)CC2)n1` [Example 30]: 192 nM. Next, `COc1ccc2[nH]cc(C3=CCC(N4CCN(c5cccc(Cl)n5)CC4)CC3)c2c1` (stereo not shown) [Example 23, 3-[4-[4-(6-Chloro-2-pvridinyl)-1-piperazinyl]-1cyclohexen-1-yl]-5-methoxy-1H-indole]: 99 nM. `COc1ccc(Cl)nc1N1CCN(CCCc2c[nH]c3ccccc23)CC1` [Example 71]: half-maximal inhibition (IC50) required 4.9 nM. The result for `Clc1cccc(N2CCN(CCc3c[nH]c4ccccc34)CC2)n1` [Example 14, 4-[6-Chloro-2-pyridinyl]-1-[2-(1H-indol-3-yl)-ethyl]piperazine hydrochloride] reads 74 nM; that for `Fc1ccc2[nH]cc(CCN3CCN(c4cccc(C(F)(F)F)n4)CC3)c2c1` [Example 43], 73 nM; that for `Clc1cccc(N2C[C@@H]3C[C@H]2CN3CCc2c[nH]c3ccccc23)n1` [Example 28], 77 nM.

`FC(F)(F)c1cccc(N2CCN(CCCCc3c[nH]c4ccccc34)CC2)n1` [Example 32] had a 50% inhibitory concentration (IC50) of 259 nM.

In the case of `COc1ccc2c(CCN3CCN(c4ncccc4OC)CC3)c[nH]c2c1` [Example 66], the 50% inhibitory concentration (IC50) turned out to be 35.9 nM. Next, `FC(F)(F)c1ccnc(N2CCN(CCCc3c[nH]c4ccccc34)CC2)c1` [Example 33]: 105 nM; `Clc1ccc(N2CCN(CCc3c[nH]c4ccccc34)CC2)nc1` [Example 54]: 30 nM.
